Source: article PMC3155477, “Cinnamon extract inhibits α-glucosidase activity and dampens postprandial glucose excursion in diabetic rats” (Nutrition & Metabolism, 2011)
≈ marks a conversion by molar mass, not a printed value.

Tests used:
[1] = biological target: T1, rat-intestinal α-glucosidase (mammalian α-glucosidase); assay: p-nitrophenol release from PNPG; assay type: biochemical; conditions: PNPG substrate (20 μl of 1 mM added), 50 mM phosphate pH 6.8, 37°C, 5 min pre-incubation, 30 min
T1 construct: gene Mgam; crude supernatant of sonicated rat-intestinal acetone powder (Sigma); native enzymes, not purified

[2] = system: T1, rat-intestinal α-glucosidase (mammalian α-glucosidase); assay: Lineweaver-Burk plot, p-nitrophenol release; assay type: biochemical; conditions: no cinnamon extract; 0.5-4 mM PNPG, 37°C, 30 min
Excerpt: Lineweaver-Burk plot, p-nitrophenol release on rat-intestinal α-glucosidase (mammalian α-glucosidase)

C[C@H]1O[C@H](O[C@H]2[C@H](O)[C@@H](O)[C@@H](O[C@H]3[C@H](O)[C@@H](O)C(O)O[C@@H]3CO)O[C@@H]2CO)[C@H](O)[C@@H](O)[C@@H]1N[C@H]1C=C(CO)[C@@H](O)[C@H](O)[C@H]1O (some centres unmarked) [Acarbose]
IC50 [1]: 34.11 µg/mL (≈ 52.8 µM)

O=[N+]([O-])c1ccc(O[C@H]2O[C@H](CO)[C@@H](O)[C@H](O)[C@H]2O)cc1 [p-Nitrophenyl-α-D-glucopyranoside]
Km [2]: 850 µM
